Entries after “also recorded” stand apart in the source; their conditions may differ.
What was measured:
[1] = tested on: Notch target genes HEY1 and HES1; experiment: HEY1 and HES1 expression in ER+ cell lines (real-time PCR, Western Blot); format: cell-based, human; details: for expression of HEY1 and HES1: MCF-7, T47D, ZR-75-1, 6 days, in the ALDH+ subpopulation
Experimental: MCF7, T47D and ZR-75-1 cell lines were purchased from American Tissue Culture Collection (ATCC) and cultured in DMEM/F-12, GlutaMAX (Gibco) with 10% FBS (Gibco). Cells were treated for 3 days or 6 days with ethanol (control), 10^-6M 4-OH-tamoxifen or 10^−7M fulvestrant and/or with 10 μM of gamma-secretase inhibitor RO4929097 (Cellagen Technology) or DMSO (control).
Total RNA was extracted using the RNeasy Plus Mini Kit (QIAGEN, 74104) and the concentration and purity determined using an ND-1000 spectrophotometer (NanoDrop Technologies). Reverse transcription of 1 μg of RNA was performed with Oligo(dT) using the TaqMan Reverse Transcription Reagents from Applied Biosystems (N8080234). Samples were incubated on a thermal cycler (MJ Research) for 10 minutes at 25° C., 30 minutes at 48° C. and 5 minutes at 95° C. Quantitative real-time PCR reactions were set up in triplicate in 384-well plates and performed on the 7900 PCR machine (Applied Biosystems) using TaqMan® Universal PCR Master Mix (Applied Biosystems) and probes from Universal Probe Library (Roche). Conditions used for amplification of cDNA fragments were as follows: 95° C. for 5 min, 40 cycles of amplification-95 C for 15 sec, 60 C for 1 min. The expression levels were calculated using the ΔΔCt method and normalised to the housekeeping genes 36B4 and GAPDH. The sequences of the primers and probes used can be found in the table below.
Proteins were extracted with Protein Lysis Buffer (25 mM HEPES, 50 mM NaCl, 30 mM NaPP, 50 mM NaF, 1% Triton-X-100, 10% Glycerol, 5 mM EDTA, Protease Inhibitor cocktail, 1 μM PMSF). Lysates were placed on a rotator for 1 hour at 4° C., then were centrifuged at 10000 g at 4° C. for 10 min, and supernatants were collected. Protein concentrations were assessed using the BCA Protein Assay Kit (Thermo Scientific, 23225). Proteins were separated on a 10% gel (Biorad, 456-1033) by SDS-PAGE at 200V for 1 hour, and then were transferred on polyvinylidene difluoride (PVDF) membranes (BioRad, 170-4157) at 25 V/1,300 mA for 15 min using a Trans Blot Turbo (BioRad, 170-4155). […]

[2] = tested on: Early (HBC×34) and metastatic (BB3RC31) PDX tumors; experiment: BCSC activity (MFE, ALDEFLUOR) of ER+ PDX tumors treated in vivo; set-up: species or system mice; details: 14 days; for BCSC activity measured by MFE and ALDH enzymatic activity: tamoxifen 10 mg/kg/day oral, fulvestrant 200 mg/kg/week s.c.
Experimental: Early (HBC×34) and metastatic (BB3RC31) BC estrogen-dependent PDXs were administered with 8 ug/ml of 17-beta estradiol in drinking water at all times and were treated with drugs when tumors reached 200-300 mm^3. Experiments were performed using PDX tumors between passages 5 and 8. Animal weight and tumor size was measured bi-dimensionally using callipers twice a week. The HBC×34 model was kindly provided by Dr Elisabetta Marangoni from Institute Curie, Paris (Cottu et al., 2012).
Tamoxifen citrate (Sigma, T9262, 10 mg/kg/day) and RO4929097 (Cellagen Technology, 3 mg/kg/day) were administered by oral gavage (0.1 ml/dose) on a five day from seven basis (weekends excluded) for fourteen days. Tamoxifen citrate and RO4929097 were prepared in 1% carboxymethylcellulose (Sigma, C9481) dissolved in distilled water. Fulvestrant (kindly provided by Astrazeneca, 200 mg/kg/week) was administered by subcutaneous injection (0.1 ml/dose) on a weekly basis for fourteen days. The HBC×22 and HBC×34 tamoxifen-resistant PDXs have been established by our collaborators in the Curie Institute (Cottu el al, 2014) and were treated for fourteen days in the presence or absence of the gamma-secretase inhibitor RO4929097 (10 mg/kg/day, oral gavage). […]
Single cell suspensions of freshly isolated ER+ primary and metastatic patient-derived samples were cultured for 7-9 days (primary cells) in mammosphere colony assays in the presence of ethanol, 10^−6 M 4-hydroxy-tamoxifen or 10^−7 M fulvestrant. […] Mammosphere formation efficiency (MFE) was calculated by dividing the number of mammospheres formed (≧50 μm) by the original number of single cells seeded (500 cells/cm^2 for primary cells and 200 cells/cm^2 for cell lines) and is expressed as fold change normalised to control or as the mean percentage of MFE (Shaw et al., 2012).
Dissociated single cells were suspended in Aldefluor assay buffer containing an ALDH substrate, bodipyaminoacetaldehyde (BAAA) at […], and incubated for 45 min at 37° C. […] Data were acquired on a LSR II (BD) flow cytometer and analysed using the BD FACSDiva™ software.

Structure (SMILES)	expression of HEY1 and HES1 [1]	BCSC activity measured by MFE and ALDH enzymatic activity [2]	HEY1 and HES1 mRNA and protein levels ([1]; MCF-7 cells pre-treated six days with RO4929097 10 μM)	endocrine stimulated BCSC activity (MFE and Aldefluor activity) ([2]; RO4929097 3 mg/kg/day oral with tamoxifen or fulvestrant)
CC/C(=C(\c1ccccc1)c1ccc(OCCN(C)C)cc1)c1ccccc1 [tamoxifen, (Z)-2-[4-(1,2-diphenylbut-1-enyl)phenoxy]-N,N-dimethylethanamine]	preferentially increased	paradoxical increase; also recorded: increasing	–	–
C[C@]12CC[C@@H]3c4ccc(O)cc4C[C@@H](CCCCCCCCC[S+]([O-])CCCC(F)(F)C(F)(F)F)[C@H]3[C@@H]1CC[C@@H]2O (stereo partly drawn) [fulvestrant]	preferentially increased	paradoxical increase; also recorded: increasing	–	–
CC(C)(C(=O)NCC(F)(F)C(F)(F)F)C(=O)N[C@@H]1C(=O)Nc2ccccc2-c2ccccc21 [RO4929097]	–	–	decreased	significantly inhibited

Reference: US20160376659A1, “Breast Cancer Biomarker” (The University of Manchester, priority 2015, published 2016)
